# Article PMC5845353, “The selective cathepsin K inhibitor MIV-711 attenuates joint pathology in experimental animal models of osteoarthritis” (Journal of Translational Medicine, 2018)
# System: dogs subjected to partial medial meniscectomy
# Experiment: Dog partial medial meniscectomy study, osteophyte measurement and grades
# Type: in vivo
# Method: Osteophytes for each compartment were measured (basal endochondral ossification to surface of cartilage cap) and severity grades assigned according to the following: […]
smiles,measurement,setting,value
C#C[C@@H]1CN(C(=O)[C@H](CC(C)C)NC(=O)c2ccc(-c3nc(N4CCN(C)CC4)sc3F)cc2)[C@@H]2C(=O)CO[C@H]12 [MIV-711],Osteophyte Score,MIV-711 group mean,0.00
same,Osteophyte Measure,individual dogs of MIV-711 group,0 µm
same,Osteophyte Score,"individual dogs of MIV-711 group, mean of 3 sections",0.00
